Measured values reported in patent publication US4285939A, “Cephalosporin derivatives, and antibacterial drugs containing the derivatives” (Eisai Co., Ltd., priority 1979, dated 1981).
Like-named read-outs stand apart in the source and are kept apart here.

Legend:
[1] = test system: Klebsiella pneumoniae EK-6; assay: Minimal inhibitory concentration, standard agar dilution method (Klebsiella pneumoniae); type: cell-based
Procedure: (§1) Minimal inhibitory concentration (MIC) was determined by the standard agar dilution method of the Japan Society of Chemotherapy.
(§2) The compounds described in Examples 1, 2 and 5 were dissolved in sterilized water; the compound described in Example 4 was dissolved in acetone-water (1:1); and the control compounds, cephaloglycin and cephalexin monohydrate, were dissolved in a 3% sodium hydrogen carbonate solution.
(§3) Serial two-fold dilutions were made from the above solutions.
(§4) One-ml aliquots of each dilution were mixed with 9 ml of Heart influsion agar in petri-dishes to make agar plates containing the compound at serially diluted concentrations. After agar hardened, plates were put in an incubator at 37° C. for 1.5-2 hours with the lids slightly open to evaporate acetone off the plates.
(§5) Test organisms were grown for 18 hours at 37° C. in Trypticase Soy broth and diluted in saline to approximately 10^6 colony forming units per ml. A loopful of each cell suspension was applied on the agar plate mentioned above and the plates were incubated for 18 hours at 37° C. before MIC was determined.
(§6) MIC values of the compounds described in Examples 1, 2 and 5 were determined as their sodium salts and the compound described in Example 4 was determined as a free carboxylic acid.

[2] = test system: Serratia marcescens ES-75; assay: Minimal inhibitory concentration, standard agar dilution method (Serratia marcescens); type: cell-based
Procedure: as §1, §2, §3, §4, §5, §6

[3] = test system: Staphylococcus aureus 209P; assay: Minimal inhibitory concentration, standard agar dilution method (Staphylococcus aureus); type: cell-based
Procedure: as §1, §2, §3, §4, §5, §6

[4] = test system: Pseudomonas aeruginosa EP-172; assay: Minimal inhibitory concentration, standard agar dilution method (Pseudomonas aeruginosa); type: cell-based
Procedure: as §1, §2, §3, §4, §5, §6

[5] = test system: Escherichia coli NIHJ; assay: Minimal inhibitory concentration, standard agar dilution method (Escherichia coli); type: cell-based
Procedure: as §1, §2, §3, §4, §5, §6

[6] = test system: Proteus morganii EP-14; assay: Minimal inhibitory concentration, standard agar dilution method (Proteus morganii); type: cell-based; conditions: Morganella morganii
Procedure: as §1, §2, §3, §4, §5, §6

[7] = acute toxicity test (mouse, oral); conditions: in vivo
Text: Moreover, it has been confirmed that the compounds of this invention show low toxicity in the toxicity test. For example, the acute toxicity values [LD50 (mouse, oral)] for the following compounds were over 5 g/kg: […]

[8] = EK6, Klebsiella pneumoniae EK-6, agar dilution, 18 hours at 37° C., Examples 1, 2, 5 as sodium salts, Example 4 as free acid, read-out: MIC
[9] = ES75, Serratia marcescens ES-75, agar dilution, 18 hours at 37° C., Examples 1, 2, 5 as sodium salts, Example 4 as free acid, read-out: MIC
[10] = Staphylococcus aureus 209P, agar dilution, 18 hours at 37° C., Examples 1, 2, 5 as sodium salts, Example 4 as free acid, read-out: MIC
[11] = EP172, Pseudomonas aeruginosa EP-172, agar dilution, 18 hours at 37° C., Examples 1, 2, 5 as sodium salts, Example 4 as free acid, read-out: MIC
[12] = Escherichia coli NIHJ, agar dilution, 18 hours at 37° C., Examples 1, 2, 5 as sodium salts, Example 4 as free acid, read-out: MIC
[13] = EP14, Proteus morganii EP-14, agar dilution, 18 hours at 37° C., Examples 1, 2, 5 as sodium salts, Example 4 as free acid, read-out: MIC

SMILES	MIC ([1]; Klebsiella pneumoniae, EK6, 18 h)	MIC ([2]; Serratia marcescens, ES75, 18 h)	MIC ([3]; Staphylococcus aureus, 209P, 18 h)	MIC ([4]; Pseudomonas aeruginosa, EP172, 18 h)	MIC ([5]; Escherichia coli, 18 h)	MIC ([6]; EP14, 18 h)	MIC [1, 8]	MIC [2, 9]	MIC [3, 10]	MIC [4, 11]	MIC [5, 12]	MIC [6, 13]	LD50 [7]
CC1=C(C(=O)O)N2C(=O)[C@@H](NC(=O)[C@H](N)c3ccccc3)[C@H]2SC1 [Cephalexin mono-hydrate, cephalexin monohydrate, reference compound]	3.13 µg/mL	> 100 µg/mL	1.56 µg/mL	> 100 µg/mL	6.25 µg/mL	> 100 µg/mL	–	–	–	–	–	–	–
CC(=O)OCC1=C(C(=O)O)N2C(=O)[C@@H](NC(=O)[C@H](NC(=O)c3coc4c(OC(C)=O)c(OC(C)=O)ccc4c3=O)c3ccccc3)[C@H]2SC1 [Example 4, 7β-[D-2-(7,8-Diacetoxychromone-3-carboxamido)-2-phenylacetamido]-3-acetoxymethyl-3-cephem-4-carboxylic acid]	–	–	–	–	–	–	≤ 0.1 µg/mL	0.8 µg/mL	1.56 µg/mL	1.56 µg/mL	0.8 µg/mL	3.13 µg/mL	–
CC(=O)OCC1=C(C(=O)O)N2C(=O)[C@@H](NC(=O)[C@H](NC(=O)c3coc4c(O)c(O)ccc4c3=O)c3ccccc3)[C@H]2SC1 [Example 5, 7β-[D-2-(7,8-Dihydroxychromone-3-carboxamido)-2-phenylacetamido]-3-acetoxymethyl-3-cephem-4-carboxylic acid]	–	–	–	–	–	–	0.2 µg/mL	1.56 µg/mL	1.56 µg/mL	1.56 µg/mL	3.13 µg/mL	12.5 µg/mL	–
CC(=O)OCC1=C(C(=O)O)N2C(=O)[C@@H](NC(=O)[C@H](NC(=O)c3coc4cc(O)c(O)cc4c3=O)c3ccccc3)[C@H]2SC1 [Example 2, 7β-[D-2-(6,7-Dihydroxychromone-3-carboxamido)-2-phenylacetamido]-3-acetoxymethyl-3cephem-4-carboxylic acid]	–	–	–	–	–	–	≤ 0.1 µg/mL	0.2 µg/mL	1.56 µg/mL	0.8 µg/mL	0.8 µg/mL	12.5 µg/mL	> 5000 mg/kg
CC(=O)OCC1=C(C(=O)O)N2C(=O)[C@@H](NC(=O)[C@H](NC(=O)c3coc4cc(OC(C)=O)c(OC(C)=O)cc4c3=O)c3ccccc3)[C@H]2SC1 [Example 1, 7β-[D-2-(6,7-Diacetoxychromone-3-carboxamido)-2-phenylacetamido]-3-acetoxymethyl-3-cephem-4-carboxylic acid]	–	–	–	–	–	–	≤ 0.1 µg/mL	0.4 µg/mL	3.13 µg/mL	0.8 µg/mL	1.56 µg/mL	50 µg/mL	–
CC(=O)OCC1=C(C(=O)O)N2C(=O)[C@@H](NC(=O)[C@H](N)c3ccccc3)[C@H]2SC1 [Cephaloglycin, cephaloglycin, reference compound]	–	–	–	–	–	–	1.56 µg/mL	> 100 µg/mL	0.8 µg/mL	> 100 µg/mL	3.13 µg/mL	25 µg/mL	–
